The text below walks through data of ChEMBL document CHEMBL3739270 (Medchemcomm, 2015).

Common to all, as to type: cell-based
One experiment deals with HEK293. Put plainly: Selectivity ratio, ratio of Ki for human melatonin receptor MT2 to Ki for human melatonin receptor MT1 expressed in HEK293 cells.
Experiment [1] concerns the target T1, Melatonin receptor type 1B (Homo sapiens, UniProt P49286).
T1 sequence (P49286 whole entry): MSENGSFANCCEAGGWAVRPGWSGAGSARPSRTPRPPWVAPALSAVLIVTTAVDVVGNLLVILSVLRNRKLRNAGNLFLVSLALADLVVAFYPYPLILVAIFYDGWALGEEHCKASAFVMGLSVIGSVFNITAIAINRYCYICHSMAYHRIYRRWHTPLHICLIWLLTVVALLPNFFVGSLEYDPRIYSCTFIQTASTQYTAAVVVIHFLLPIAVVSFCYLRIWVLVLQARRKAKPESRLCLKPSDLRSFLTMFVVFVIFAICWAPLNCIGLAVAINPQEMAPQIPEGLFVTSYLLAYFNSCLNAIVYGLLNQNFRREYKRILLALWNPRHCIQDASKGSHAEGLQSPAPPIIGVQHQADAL
Put plainly: Displacement of 2-[125I]-iodomelatonin from human melatonin receptor MT2 expressed in CHO cells after 1 hr by gamma counting analysis.

The target in experiment [2] is Melatonin receptor type 1A (Homo sapiens, UniProt P48039). Put plainly: Displacement of 2-[125I]-iodomelatonin from human melatonin receptor MT1 expressed in CHO cells after 1 hr by gamma counting analysis.
Another experiment concerns CHO. Put plainly: Selectivity ratio, ratio of Ki for human melatonin receptor MT2 to Ki for human melatonin receptor MT1 expressed in CHO cells.
The test system of another experiment is CHO-K1. Put plainly: Selectivity ratio, ratio of Ki for human melatonin receptor MT2 to Ki for human melatonin receptor MT1 expressed in CHO-K1 cells.

Sequence of Melatonin receptor type 1A (P48039 whole entry): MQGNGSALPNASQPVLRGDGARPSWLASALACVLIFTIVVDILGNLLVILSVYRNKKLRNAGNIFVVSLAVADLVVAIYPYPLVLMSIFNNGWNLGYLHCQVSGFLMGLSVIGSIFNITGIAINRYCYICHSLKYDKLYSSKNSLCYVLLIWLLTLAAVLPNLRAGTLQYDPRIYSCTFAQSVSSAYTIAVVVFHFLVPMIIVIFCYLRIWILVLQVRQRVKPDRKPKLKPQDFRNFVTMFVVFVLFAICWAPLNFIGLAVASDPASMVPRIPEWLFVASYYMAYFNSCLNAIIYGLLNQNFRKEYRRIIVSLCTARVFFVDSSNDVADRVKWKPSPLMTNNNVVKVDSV

As for `CC(=O)NCCc1cccc2ccc(OCCCCOc3ccc4cccc(CCNC(C)=O)c4c3)cc12`, the Ratio Ki in the experiment with HEK293 worked out at 120.
Regarding `O=C(NCCc1c[nH]c2ccc(OCCCOc3ccccc3)cc12)C(F)F`, the Ki in experiment [1] (read-out: Ki) worked out at 7.8 nM; in experiment [2] (read-out: Ki), 6.2 nM. Moreover, in the experiment on CHO, the Ratio Ki was determined as 10.
With `CC(=O)NCCc1cccc2ccc(OCCCc3ccccc3)cc12`, the Ki was 9 nM in experiment [1] (read-out: Ki), 21.4 nM in experiment [1] (read-out: pKi (converted)), 9 nM in experiment [2] (read-out: Ki) and 25.1 nM in experiment [2] (read-out: pKi (converted)).
As for `O=C(NCCc1cccc2ccc(OCCCCOc3ccc4cccc(CCNC(=O)C(F)F)c4c3)cc12)C(F)F`, the Ki in experiment [1] (read-out: Ki) amounted to 15 nM; in experiment [2] (read-out: Ki) it was 12 nM.
On to `COc1ccc2cccc(CCNC(=O)C(F)F)c2c1`, for which the Ki was 0.85 nM in experiment [1] (read-out: Ki) and 0.054 nM in experiment [2] (read-out: Ki). In addition, the Ratio Ki in the experiment with CHO stood at 16.
`CC(=O)NCCc1cccc2ccc(OCCCOc3ccccc3)cc12`: the Ki in experiment [1] (read-out: Ki) was found to be 44 nM; in experiment [2] (read-out: Ki) it was 35 nM.
In the same order, the values of `COc1ccc2cccc(CCNC(=O)C(Cl)Cl)c2c1` are 2 nM and 5 nM.
As to `O=C(NCCCc1cccc2nc(CCCCc3ccccc3)oc12)C1CC1`, in the experiment on CHO-K1, the Ratio Ki was 30.
Turning to `CC(=O)NCCc1cccc2ccc(OCCCOc3ccc4cccc(CCNC(C)=O)c4c3)cc12`, the Ki is 355 nM in experiment [1] (read-out: pKi (converted)) and 112 nM in experiment [2] (read-out: Ki).
Take `CCCCCCOc1ccc2c(c1)C(CCNC(C)=O)CCO2` (stereo not drawn): the Ratio Ki in the experiment with CHO-K1 was found to be 30.
`O=C(NCCc1cccc2ccc(OCCCOc3ccc4cccc(CCNC(=O)C(F)F)c4c3)cc12)C(F)F`: the results for the Ki in experiment [1] (read-out: Ki) and in experiment [2] (read-out: Ki) were 8.1 nM and 1.2 nM, respectively. In addition, the Ratio Ki in the experiment with CHO was found to be 7.
For the compound `COc1ccc2cccc(CCNC(=O)C(F)(F)F)c2c1`, the Ki amounted to 2 nM in experiment [1] (read-out: Ki) and 5 nM in experiment [2] (read-out: Ki).
The matching figures for `CC(=O)NCCc1cccc2ccc(OCCCCc3ccccc3)cc12`: 9 nM and 9 nM.
